Where a name gives a salt, the structure may show the parent alone. Read-outs that look alike come from different tables or passages of the source.

Data set [1] relates to SARS-CoV-2-ΔOrf7a-NLuc virus. Kind of data set: microbe, parasite or virus in culture. The format is cell-based. The conditions noted are these: for Mean relative luminescence (n=4) / activity at 10 µM: 1 = untreated, 0 = total inhibition; for activity at 10 µM: Severe acute respiratory syndrome coronavirus 2, Vero, 72 h, read-out: Mean relative luminescence (n=4).
Data set [2] concerns recombinant NLuc. The format is biochemical. Conditions: for Relative Recombinant NLUC: recombinant NLuc activity relative to DMSO; for Reads Counts per second (read 1): first read column; for Reads Counts per second (read 4): fourth read column; for Reads Counts per second (read 3): third read column.
Data set [3] relates to Vero cells.
[4] abbreviates: Vero cells, 10 μM, 1 = DMSO-treated infected cells.

For `NCCC(O)(P(=O)([O-])O)P(=O)([O-])O.[Na+].[Na+]` [Pamidronate Disodium], in data set [1], the “% activity in Vero 100PFU screen” value is given as 2.29% and the “Mean relative luminescence (n=4)” value is reported as 0.01648. In addition, in data set [2], the “Relative Recombinant NLUC” value was found to be 0.8313. In data set [2] (recombinant NLuc), the “Reads Counts per second (read 1)” value is reported as 309519 Counts per second, the “Reads Counts per second (read 4)” value was 313941 Counts per second and the “Reads Counts per second (read 3)” value turned out to be 313471 Counts per second. The same molecule displayed a PrestoBlue relative viability in data set [3] (setting [4]) of 0.5456.
For `CCCCCCCCc1ccc(CCC(N)(CO)CO)cc1` [Fingolimod (FTY720), Fingolimod], in data set [1], the “% activity in Vero 100PFU screen” value turned out to be 3% and the activity at 10 µM is 0.757%. The “Relative Recombinant NLUC” value in data set [2] amounted to 0.9393. In addition, in data set [2] (recombinant NLuc), the “Reads Counts per second (read 1)” value was 354171 Counts per second, the “Reads Counts per second (read 4)” value worked out at 351555 Counts per second and the “Reads Counts per second (read 3)” value was found to be 356587 Counts per second. For the same molecule, the PrestoBlue relative viability in data set [3] (setting [4]) is given as 0.6911.
For `CC(=O)[C@]1(O)Cc2c(O)c3c(c(O)c2[C@@H](O[C@H]2C[C@H](N)[C@H](O)[C@H](C)O2)C1)C(=O)c1ccccc1C3=O` [Idarubicin HCl], in data set [1], the “% activity in Vero 100PFU screen” value is recorded as 2.14% and the activity at 10 µM was found to be 1.49%. Further, the “Relative Recombinant NLUC” value in data set [2] came to 0.861. Further, in data set [2] (recombinant NLuc), the “Reads Counts per second (read 1)” value was found to be 327538 Counts per second, the “Reads Counts per second (read 4)” value came out at 318222 Counts per second and the “Reads Counts per second (read 3)” value came to 325691 Counts per second. The same molecule displayed a PrestoBlue relative viability in data set [3] (setting [4]) of 0.5406.
On to `COc1cccc2c1C(=O)c1c(O)c3c(c(O)c1C2=O)C[C@@](O)(C(=O)CO)C[C@@H]3O[C@H]1C[C@H](N)[C@@H](O)[C@H](C)O1` [Epirubicin HCl], for which, in data set [1], the “% activity in Vero 100PFU screen” value was determined as 3.44% and the activity at 10 µM was determined as 2.8%. For the same molecule, in data set [2], the “Relative Recombinant NLUC” value is 0.8025. Also, in data set [2] (recombinant NLuc), the “Reads Counts per second (read 1)” value is listed as 298948 Counts per second, the “Reads Counts per second (read 4)” value is given as 310338 Counts per second and the “Reads Counts per second (read 3)” value came to 302560 Counts per second. Further, the PrestoBlue relative viability in data set [3] (African green monkey) is given as 0.9127.
Consider `COc1cc2c(Oc3ccc4[nH]c(C)cc4c3F)ncnc2cc1OCCCN1CCCC1` [Cediranib (AZD217), Cediranib], for which, in data set [1], the “% activity in Vero 100PFU screen” value is reported as 3.31% and the activity at 10 µM is 2.67%. In addition, in data set [2], the “Relative Recombinant NLUC” value worked out at 0.9439. In addition, in data set [2] (recombinant NLuc), the “Reads Counts per second (read 1)” value worked out at 350524 Counts per second, the “Reads Counts per second (read 4)” value was determined as 362844 Counts per second and the “Reads Counts per second (read 3)” value was 354116 Counts per second. Besides, the PrestoBlue relative viability in data set [3] (setting [4]) came to 0.559.
Regarding `Oc1c(Cl)cc(Cl)c2cccnc12` [Chloroxine], in data set [1], the “% activity in Vero 100PFU screen” value is given as 6.5% and the activity at 10 µM was found to be 3.55%. The “Relative Recombinant NLUC” value in data set [2] is given as 0.9975. Further, in data set [2] (recombinant NLuc), the “Reads Counts per second (read 1)” value was 380665 Counts per second, the “Reads Counts per second (read 4)” value is listed as 374884 Counts per second and the “Reads Counts per second (read 3)” value came out at 374596 Counts per second. The same molecule gave a PrestoBlue relative viability in data set [3] (setting [4]) of 0.5777.
`CCc1ccc(CCOc2ccc(CC3SC(=O)NC3=O)cc2)nc1` (stereo not shown) [Pioglitazone HCl]: in data set [1], the activity at 10 µM stood at 0.204%. This molecule also yielded a PrestoBlue relative viability in data set [3] (African green monkey) of 3.485.
Consider `Clc1ccc(CCC(Cn2ccnc2)Sc2c(Cl)cccc2Cl)cc1` (stereo not shown) [Butoconazole nitrate], for which, in data set [1], the activity at 10 µM is 11.6%. In data set [3] (setting [4]), this molecule yielded a PrestoBlue relative viability of 0.6922.
Regarding `CC[C@@H](C(=O)[C@@H](C)[C@@H](O)[C@H](C)[C@@H]1O[C@@H]([C@@H](CC)C(=O)O)CC[C@@H]1C)[C@H]1O[C@]2(C=C[C@@H](O)[C@]3(CC[C@@](C)([C@H]4CC[C@](O)(CC)[C@H](C)O4)O3)O2)[C@H](C)C[C@@H]1C` [Salinomycin], in data set [1], the “% activity in Vero 100PFU screen” value was 3.75% and the activity at 10 µM stood at 1.89%. In data set [2], the “Relative Recombinant NLUC” value was determined as 0.9779. Also, in data set [2] (recombinant NLuc), the “Reads Counts per second (read 1)” value is 365050 Counts per second, the “Reads Counts per second (read 4)” value was 367850 Counts per second and the “Reads Counts per second (read 3)” value was determined as 373342 Counts per second. The molecule also showed a PrestoBlue relative viability in data set [3] (setting [4]) of 0.6121.
Turning to `CCCCCCCCCCCCCCCC[N+](C)(C)CCN(Cc1ccc(OC)cc1)c1ncccn1` [Thonzonium Bromide], the activity at 10 µM in data set [1] came out at 10.4%. Moreover, the PrestoBlue relative viability in data set [3] (setting [4]) was 0.6049.
Consider `N[C@@H](CC(=O)N1CCn2c(nnc2C(F)(F)F)C1)Cc1cc(F)c(F)cc1F` [Sitagliptin phosphate monohydrate], for which, in data set [1], the activity at 10 µM was 0.0141%. The PrestoBlue relative viability in data set [3] (setting [4]) is given as 2.5607.
Consider `Br.Cc1ccc(Sc2ccccc2N2CCNCC2)c(C)c1` [Vortioxetine (Lu AA21004) HBr], for which, in data set [1], the “% activity in Vero 100PFU screen” value is recorded as 1.39% and the “Mean relative luminescence (n=4)” value was found to be 0.007391. Also, in data set [2], the “Relative Recombinant NLUC” value amounted to 0.7479. Besides, in data set [2] (recombinant NLuc), the “Reads Counts per second (read 1)” value is recorded as 280784 Counts per second, the “Reads Counts per second (read 4)” value worked out at 284019 Counts per second and the “Reads Counts per second (read 3)” value is recorded as 284246 Counts per second. The molecule further registered a PrestoBlue relative viability in data set [3] (setting [4]) of 0.509.
`Oc1cc(Cl)ccc1Oc1ccc(Cl)cc1Cl` [Triclosan]: in data set [1], the activity at 10 µM turned out to be 10.6%. This molecule gave a PrestoBlue relative viability in data set [3] (setting [4]) of 0.5234.
With `C=C1/C(=C\C=C2/CCC[C@]3(C)[C@@H]([C@H](C)/C=C/[C@H](C)C(C)C)CC[C@@H]23)C[C@@H](O)C[C@@H]1O` [Doxercalciferol], in data set [1], the “% activity in Vero 100PFU screen” value turned out to be 8% and the activity at 10 µM turned out to be 5.56%. For the same molecule, the “Relative Recombinant NLUC” value in data set [2] was found to be 0.9613. Besides, in data set [2] (recombinant NLuc), the “Reads Counts per second (read 1)” value came out at 361602 Counts per second, the “Reads Counts per second (read 4)” value turned out to be 356613 Counts per second and the “Reads Counts per second (read 3)” value stood at 370984 Counts per second. The same molecule yielded a PrestoBlue relative viability in data set [3] (setting [4]) of 0.5418.
Consider `CN1CCN(CCCN2c3ccccc3Sc3ccc(C(F)(F)F)cc32)CC1.Cl.Cl` [Trifluoperazine 2HCl], for which, in data set [1], the “% activity in Vero 100PFU screen” value is 7% and the “Mean relative luminescence (n=4)” value is 0.05678. For the same molecule, the “Relative Recombinant NLUC” value in data set [2] came to 0.9397. For the same molecule, in data set [2] (recombinant NLuc), the “Reads Counts per second (read 1)” value is recorded as 358281 Counts per second, the “Reads Counts per second (read 4)” value was 360671 Counts per second and the “Reads Counts per second (read 3)” value was 348422 Counts per second. The molecule further had a PrestoBlue relative viability in data set [3] (setting [4]) of 0.6995.
For `C[C@]12CC[C@H](O)CC1=CC[C@@H]1[C@@H]2CC[C@]2(C)C(c3cccnc3)=CC[C@@H]12` [Abiraterone], in data set [1], the “% activity in Vero 100PFU screen” value worked out at 6.46% and the activity at 10 µM turned out to be 6.48%. The “Relative Recombinant NLUC” value in data set [2] turned out to be 0.7592. Moreover, in data set [2] (recombinant NLuc), the “Reads Counts per second (read 1)” value is listed as 279631 Counts per second, the “Reads Counts per second (read 4)” value was 289231 Counts per second and the “Reads Counts per second (read 3)” value amounted to 288897 Counts per second. Also, the “Reads Counts per second (read 2)” value in data set [2] (recombinant NLuc, second read) was 289523 Counts per second. The molecule also yielded a PrestoBlue relative viability in data set [3] (setting [4]) of 0.5649.
Take `CSc1nc2cc(Cl)c(Oc3cccc(Cl)c3Cl)cc2[nH]1` [Triclabendazole]: in data set [1], the “% activity in Vero 100PFU screen” value amounted to 12% and the activity at 10 µM is 9.74%. The “Relative Recombinant NLUC” value in data set [2] is 0.8923. In addition, in data set [2] (recombinant NLuc), the “Reads Counts per second (read 1)” value came out at 335937 Counts per second, the “Reads Counts per second (read 4)” value is on record as 339544 Counts per second and the “Reads Counts per second (read 3)” value worked out at 336143 Counts per second. In addition, the PrestoBlue relative viability in data set [3] (setting [4]) came out at 0.62.
With `Cl.Fc1ccc([C@@H]2CCNC[C@H]2COc2ccc3c(c2)OCO3)cc1` [Paroxetine HCl], in data set [1], the “% activity in Vero 100PFU screen” value worked out at 12% and the “Mean relative luminescence (n=4)” value came to 0.09097. In addition, the “Relative Recombinant NLUC” value in data set [2] came out at 0.9732. Besides, in data set [2] (recombinant NLuc), the “Reads Counts per second (read 1)” value is listed as 360169 Counts per second, the “Reads Counts per second (read 4)” value came out at 368856 Counts per second and the “Reads Counts per second (read 3)” value was 369849 Counts per second. Also, the PrestoBlue relative viability in data set [3] (setting [4]) is reported as 1.088.
As to `CC(C)(Sc1cc(C(C)(C)C)c(O)c(C(C)(C)C)c1)Sc1cc(C(C)(C)C)c(O)c(C(C)(C)C)c1` [Probucol], in data set [1], the “% activity in Vero 100PFU screen” value is reported as 5% and the activity at 10 µM was found to be 2.23%. The “Relative Recombinant NLUC” value in data set [2] worked out at 0.9023. For the same molecule, in data set [2] (recombinant NLuc), the “Reads Counts per second (read 1)” value was found to be 337686 Counts per second, the “Reads Counts per second (read 4)” value is recorded as 339611 Counts per second and the “Reads Counts per second (read 3)” value is reported as 341300 Counts per second. The PrestoBlue relative viability in data set [3] (setting [4]) worked out at 0.7536.
For the molecule `COc1ccc(-n2nc(C(N)=O)c3c2C(=O)N(c2ccc(N4CCCCC4=O)cc2)CC3)cc1` [Apixaban], the activity at 10 µM in data set [1] came out at 0.124%. Moreover, the PrestoBlue relative viability in data set [3] (setting [4]) came to 2.564.
Regarding `Cc1ccc(Sc2ccccc2N2CCNCC2)c(C)c1` [Vortioxetine], in data set [1], the “% activity in Vero 100PFU screen” value was found to be 6% and the activity at 10 µM was determined as 4.21%. In data set [2], the “Relative Recombinant NLUC” value was found to be 0.8732. In data set [2] (recombinant NLuc), the “Reads Counts per second (read 1)” value was determined as 326546 Counts per second, the “Reads Counts per second (read 4)” value is 332965 Counts per second and the “Reads Counts per second (read 3)” value is 329264 Counts per second. In data set [3] (setting [4]), this molecule displayed a PrestoBlue relative viability of 0.6088.
For `CN(CCOc1ccc(CC2SC(=O)NC2=O)cc1)c1ccccn1` (stereo not shown) [Rosiglitazone], the activity at 10 µM in data set [1] stood at 0.183%. In addition, the PrestoBlue relative viability in data set [3] (setting [4]) amounted to 3.111.
For `CC(C)C(=O)OCC(=O)[C@@]12O[C@H](C3CCCCC3)O[C@@H]1C[C@H]1[C@@H]3CCC4=CC(=O)C=C[C@]4(C)[C@H]3[C@@H](O)C[C@@]12C` [Ciclesonide] the same measures were 14.1% and 0.5125.
For `Clc1ccccc1C(c1ccccc1)(c1ccccc1)n1ccnc1` [Clotrimazole] the same measures were 13.9% and 1.057.

(Values after paper PMC8428568, “Discovery of re-purposed drugs that slow SARS-CoV-2 replication in human cells” (PLoS Pathogens, 2021).)
